# Source: patent US10300176B2, “Catheter lock solution formulations” (Medline Industries, Inc., priority 2013, dated 2019)
# Test: break through pressure or vacuum level after exhaustive drying of lock formulations in simulated silicone catheter tubing
# Format: physicochemical
# Settings: excipient at approximately 1% by weight
# Description: FIG. 1 is a view of a sphygmomanometer 10 connected to a syringe 12. The sphygmomanometer 10 includes a gauge 14 with a visual display 16 to measure the pressure or vacuum level. The sphygmomanometer 10 and the syringe 12 were used to measure the break through pressure or vacuum level.
# Long silicone rubber commercial catheter extension tubing segments spliced together, or a single small bore with a 1.5 mm inner diameter clear, and very soft laboratory silicone rubber tubing of about 15 inch in length were used for evaluation. Formulations of 30% weight per volume (w/v) ethanol and 4% weight per weight (w/w) tri-sodium citrate with candidate biocompatible excipients were prepared and charged into the lumens of simulated catheter tubings and capped with solid plugs. The samples were first dried near a de-humidifier for about 24 hours to allow evaporation of most ethanol before being placed into a clear polycarbonate drying column connected in series with a large Drierite® desiccant column. The columns were also fitted with a gas flow meter and a diaphragm gas pump to provide closed loop gas circulation at about 4 liter per minute (min-1). […] Both the pressure (+) or vacuum (−) levels to cause the liquid or solid plug movement were measured when subjected to actuation movements from a small air filled syringe 12 connected to a sphygmomanometer 10. […]
compound,measurement,value
OCC(O)CO [glycerol],effectiveness of excipient in words,conditionally acceptable
same,time free flowing,greater than 7 days
